Experimental findings from ChEMBL document CHEMBL1201862, “PubChem BioAssay data set” (2004) are described below.

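Five compound concentrations were applied to cells in 96-well plates for 48 hours; endpoints were derived by simple linear interpolation of the resulting dose-response curve. GI50 marks 50% less growth.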 Calls of active or inactive are those of the source. No stated cut-off is given here; in the data, active = GI50 up to about 1.1 µM and inactive = higher.

Some test systems named below: A549; ACHN; BT-549; COLO 205; DU-145; EKVX; HCC 2998; HOP-92; K562; KM12; NCI-H460; SF-539; SK-MEL-28; SK-MEL-5; SN12C; SNB-19; SR; TK-10; UACC-257; UACC-62.
Assay in all cases: NCI anticancer screen, dose series, 48 h

Take `O=C(Nc1cc2cc([N+](=O)[O-])ccc2oc1=O)c1cccs1`: the GI50 in the assay on A549 was 43.8 µM (inactive); with ACHN it was 49 µM (inactive); in the assay with BT-549 it was 69.2 µM (inactive); in the assay with COLO 205, 25.2 µM (inactive); in the assay with DU-145 it was > 100 µM (inactive); in the assay with EKVX, 61.7 µM (inactive). Moreover, the GI50 in the assay on HCC 2998 was 48.3 µM (inactive); in the assay with HOP-92 it was 37.6 µM (inactive); with K562, 25.9 µM (inactive); in the assay on KM12 it was 24.5 µM (inactive); with NCI-H460, 51.2 µM (inactive); in the assay with SF-539, 25.6 µM (inactive). The GI50 in the assay with SK-MEL-28 is 58.9 µM (inactive); with SK-MEL-5, 16 µM (inactive); with SN12C it was 40.5 µM (inactive); with SNB-19, > 100 µM (inactive); with SR it was 35 µM (inactive); in the assay on TK-10, > 100 µM (inactive). Also, in the assay with UACC-257, the GI50 is 75.2 µM (inactive).
As for `Cc1cc(S(=O)(=O)Nc2nc(N)n[nH]2)c(SCC(=O)O)cc1Cl`, the GI50 with A549, in the assay on ACHN, in the assay on BT-549, with COLO 205, in the assay with DU-145 and in the assay with EKVX was > 10 µM (inactive) each time. For the same molecule, the GI50 in the assay with HCC 2998, in the assay with HOP-92, in the assay on K562, in the assay on KM12, in the assay on NCI-H460 and in the assay on SF-539 was > 10 µM (inactive) each time. Also, the GI50 in the assay with SK-MEL-28, in the assay on SK-MEL-5, in the assay with SN12C, in the assay with SNB-19, with SR and with TK-10 was > 10 µM (inactive) throughout. In the assay on UACC-257, the GI50 is > 10 µM (inactive).
For the molecule `O=C1/C(=C/c2ccc(OC(=O)c3ccc(Cl)cc3)cc2)CCC/C1=C\c1ccc(OC(=O)c2ccc(Cl)cc2)cc1`, the GI50 in the assay with A549, in the assay on ACHN, in the assay with BT-549, in the assay on COLO 205, with DU-145 and in the assay with EKVX was > 100 µM (inactive) in each case. Besides, the GI50 was > 100 µM (inactive) in the assay with HCC 2998; > 100 µM (inactive) with HOP-92; > 100 µM (inactive) in the assay with KM12; > 100 µM (inactive) in the assay on NCI-H460; 30 µM (inactive) in the assay on SF-539; > 100 µM (inactive) with SK-MEL-28. The GI50 is > 100 µM (inactive) in the assay with SK-MEL-5; > 100 µM (inactive) in the assay on SN12C; > 100 µM (inactive) in the assay with SNB-19; > 100 µM (inactive) in the assay on SR; 94.8 µM (inactive) with TK-10; > 100 µM (inactive) in the assay with UACC-257. The GI50 in the assay on UACC-62 is > 100 µM (inactive).
Consider `O=S1(=O)CCC2=CC(C(F)(F)F)=CC(C(F)(F)F)=CN21`, for which the GI50 was 2.96 µM (inactive) in the assay on A549; 0.415 µM (active) with ACHN; 2.43 µM (inactive) with BT-549; 0.454 µM (active) with COLO 205; 0.542 µM (active) in the assay with DU-145; 2.93 µM (inactive) in the assay with EKVX. Further, the GI50 in the assay on HCC 2998 was 2.07 µM (inactive); in the assay with HOP-92 it was 1.15 µM (inactive); in the assay with K562 it was 0.39 µM (active); in the assay on KM12, 1.71 µM (inactive); in the assay with NCI-H460, 2.59 µM (inactive); in the assay with SF-539, 1.42 µM (inactive). For the same molecule, the GI50 with SK-MEL-28 was 1.78 µM (inactive); with SK-MEL-5, 1.42 µM (inactive); in the assay with SN12C, 1.55 µM (inactive); in the assay on SNB-19, 2.47 µM (inactive); in the assay on SR it was 0.216 µM (active); in the assay on TK-10, 0.697 µM (active). The results for the GI50 in the assay on UACC-257 and with UACC-62 were 2.14 µM (inactive) and 1.64 µM (inactive), respectively.
`COc1ccc(C(=O)N2CCN(c3ccc4[nH]c(=O)oc4c3)CC2)cc1`: the GI50 is > 100 µM (inactive) in the assay on A549; 69.8 µM (inactive) in the assay on ACHN; > 100 µM (inactive) in the assay on BT-549; > 100 µM (inactive) in the assay with COLO 205; > 100 µM (inactive) with DU-145; 78.7 µM (inactive) with EKVX. Moreover, the GI50 in the assay with HCC 2998, in the assay with HOP-92, with KM12, in the assay on NCI-H460, in the assay on SF-539 and in the assay with SK-MEL-28 was > 100 µM (inactive) throughout. Besides, the GI50 with SK-MEL-5 is > 100 µM (inactive); with SN12C, > 100 µM (inactive); with SNB-19, > 100 µM (inactive); with SR, 92.5 µM (inactive); in the assay with TK-10, > 100 µM (inactive); with UACC-257, > 100 µM (inactive). Also, in the assay with UACC-62, the GI50 is 99.3 µM (inactive).
In the case of `CC(C)(C)NCc1cc(C(C)(C)C)cc(-c2ccc(Cl)cc2)c1O`, the GI50 is 16 µM (inactive) in the assay on A549; 13.8 µM (inactive) in the assay with ACHN; 13.7 µM (inactive) with BT-549; 10.7 µM (inactive) in the assay with COLO 205; 11.7 µM (inactive) in the assay with DU-145; 12.7 µM (inactive) in the assay with EKVX. Moreover, the GI50 in the assay on HCC 2998 is 14.7 µM (inactive); with HOP-92 it was 14.3 µM (inactive); in the assay on KM12, 13.2 µM (inactive); in the assay with NCI-H460 it was 12.5 µM (inactive); with SF-539, 11.9 µM (inactive); in the assay with SK-MEL-28, 13.8 µM (inactive). For the same molecule, the GI50 in the assay with SK-MEL-5 was 16.2 µM (inactive); with SN12C it was 15.2 µM (inactive); in the assay with SNB-19, 15.7 µM (inactive); in the assay on SR, 10.9 µM (inactive); in the assay with TK-10 it was 12 µM (inactive); with UACC-257, 28.2 µM (inactive). In the assay with UACC-62, the GI50 was 13.7 µM (inactive).
In the case of `CCOP(C)(=O)C(N)Cc1ccc(OC)c(OC)c1` (stereo not given), the GI50 in the assay with A549, with ACHN, with BT-549, with COLO 205, with DU-145 and in the assay on EKVX was > 100 µM (inactive) in each case. The GI50 in the assay with HCC 2998, in the assay on HOP-92, in the assay on K562, in the assay with NCI-H460, with SF-539 and in the assay with SK-MEL-28 was > 100 µM (inactive) throughout. For the same molecule, the GI50 in the assay on SK-MEL-5, in the assay with SN12C, in the assay with SNB-19, in the assay on SR, in the assay with TK-10 and in the assay with UACC-62 was > 100 µM (inactive) throughout.
In the case of `Cc1ccc(SCC(OCn2cnc3c(N)ncnc32)[C@H](C)F)cc1` (stereo not given in full), the GI50 in the assay on A549 is > 100 µM (inactive); with ACHN, > 100 µM (inactive); in the assay on BT-549, 40.9 µM (inactive); in the assay with COLO 205, > 100 µM (inactive); in the assay on DU-145, > 100 µM (inactive); with HCC 2998, > 100 µM (inactive). For the same molecule, the GI50 was 54.5 µM (inactive) in the assay with HOP-92; > 100 µM (inactive) in the assay on KM12; > 100 µM (inactive) in the assay with NCI-H460; > 100 µM (inactive) with SF-539; > 100 µM (inactive) with SK-MEL-28; 41.4 µM (inactive) in the assay with SK-MEL-5. For the same molecule, the GI50 with SN12C, with SNB-19, in the assay on SR, in the assay on TK-10, with UACC-257 and with UACC-62 was > 100 µM (inactive) each time.
On to `Cc1ccc(S(=O)(=O)N2C3C=CC(C3)[C@@H]2C(Cl)(Cl)Cl)cc1` (stereo not given in full), for which the GI50 in the assay with A549 is 18.7 µM (inactive); with ACHN, 14.3 µM (inactive); in the assay with BT-549, 16.4 µM (inactive); with COLO 205, 20.6 µM (inactive); in the assay on DU-145, 10.5 µM (inactive); in the assay with EKVX, 5.22 µM (inactive). The GI50 with HCC 2998 is 7.31 µM (inactive); in the assay on HOP-92, 10.1 µM (inactive); in the assay with KM12 it was 20.3 µM (inactive); with NCI-H460, 6.75 µM (inactive); in the assay on SF-539 it was 12.3 µM (inactive); in the assay on SK-MEL-28, 18.2 µM (inactive). Further, the GI50 was 19.3 µM (inactive) with SK-MEL-5; 24.2 µM (inactive) in the assay on SN12C; 17.9 µM (inactive) in the assay on SNB-19; 14.4 µM (inactive) in the assay on SR; 18.7 µM (inactive) with TK-10; 20.1 µM (inactive) with UACC-257. Moreover, in the assay with UACC-62, the GI50 is 14.6 µM (inactive).
For `Clc1cccc2[nH]ncc12`, the GI50 was > 100 µM (inactive) with A549; > 100 µM (inactive) with ACHN; 36.1 µM (inactive) with BT-549; 74.6 µM (inactive) in the assay with COLO 205; > 100 µM (inactive) with DU-145; 32.4 µM (inactive) in the assay on EKVX. Besides, the GI50 in the assay on HCC 2998, with HOP-92, in the assay with K562, with KM12, with NCI-H460 and in the assay with SF-539 was > 100 µM (inactive) in each case. Moreover, the GI50 in the assay with SK-MEL-28 is > 100 µM (inactive); in the assay on SK-MEL-5, > 100 µM (inactive); in the assay on SN12C, > 100 µM (inactive); in the assay with SNB-19 it was > 100 µM (inactive); in the assay with SR it was 30.6 µM (inactive); in the assay with TK-10 it was > 100 µM (inactive). Also, the GI50 in the assay on UACC-257 and in the assay with UACC-62 was > 100 µM (inactive) each time.
